target: T1, Na+-dependent bile acid transportation system (intestinal bile acid transportation system in the terminal small intestine) (Oryctolagus cuniculus, UniProt Q28727); assay: Inhibition of Na+-dependent [3H]-taurocholate uptake in brush border membrane vesicles of the ileum of rabbits; assay type: biochemical; details: quotient of IC50Na of reference taurochenedeoxycholate (TCDC) and IC50Na of test substance; rabbit ileum brush border membrane vesicles; 50 μM taurocholate
T1 construct: from tissue; host or cells: brush border membrane vesicles from the terminal 7/10 of the small intestine (ileum) of male New Zealand rabbits
T1 sequence (Q28727 1-347): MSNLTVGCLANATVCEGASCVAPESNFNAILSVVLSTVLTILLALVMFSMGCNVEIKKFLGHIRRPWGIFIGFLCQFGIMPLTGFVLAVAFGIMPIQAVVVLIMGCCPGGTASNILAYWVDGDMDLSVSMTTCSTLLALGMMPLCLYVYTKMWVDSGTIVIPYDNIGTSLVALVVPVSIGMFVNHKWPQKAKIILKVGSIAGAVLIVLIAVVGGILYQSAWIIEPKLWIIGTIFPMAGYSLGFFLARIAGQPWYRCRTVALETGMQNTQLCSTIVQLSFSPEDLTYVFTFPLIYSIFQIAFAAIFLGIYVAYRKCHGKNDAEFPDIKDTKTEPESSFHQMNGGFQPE
Experimental: Biological testing of the compounds of the present invention was carried out by determining the inhibition of [^3 H]-taurocholate uptake in brush border membrane vesicles of the ileum of rabbits. The inhibition test was carried out as follows:
1. Preparation of brush border membrane vesicles from the ileum of rabbits
Preparation of brush border membrane vesicles from the intestinal cells of the small intestine was carried out by the so-called Mg^2+ precipitation method. Male New Zealand rabbits (2 to 2.5 kg of body weight) were sacrificed by intravenous injection of 0.5 ml of T61®, an aqueous solution of 2.5 mg of tetracaine HCl, 100 mg of embutramide and 25 mg of mebezonium iodide. The small intestine was removed and rinsed with ice-cold physiological saline solution. The terminal 7/10 of the small intestine (measured in the oral-rectal direction, i.e., the terminal ileum, which contains the active Na^+ -dependent bile acid transportation system) was used for preparation of the brush border membrane vesicles. The intestines were frozen at -80° C. in plastic bags under nitrogen.
For preparation of the membrane vesicles, the frozen intestines were thawed at 30° C. in a water-bath. The mucosa was scraped off and suspended in 60 ml of ice-cold 12 mM TRIS/HCl buffer (pH 7.1)/300 mM mannitol, 5 mM EGTA/10 mg/l of phenylmethylsulfonyl fluoride/1 mg/l of trypsin inhibitor from soybeans (32 U/mg)/0.5 mg/l of trypsin inhibitor from the bovine lung (193 U/mg)/5 mg/l of bacitracin. After dilution to 300 ml with ice-cold distilled water, the mixture was homogenized with an Ultraturrax (18-rod, IKA Werk Staufen, Germany) at 75% of the maximum for 3 minutes, while cooling with ice. After addition of 3 ml of 1 M MgCl2 solution (final concentration 10 mM), the mixture was left to stand at 0° C. for exactly 1 minute. By addition of Mg^2+, the cell membranes aggregated, and precipitated with the exception of the brush border membranes. After centrifugation at 3000× g (5000 rpm, SS-34 rotor) for 15 minutes, the precipitate was discarded and the supernatant, which contained the brush border membrane, was centrifuged at 48,000× g (20,000 rpm, SS-34 rotor) for 30 minutes. The supernatant was discarded and the precipitate was rehomogenized in 60 ml of 12 mM TRIS/HCl buffer (pH 7.1)/60 mM mannitol, 5 mM EGTA with a Potter Elvejhem homogenizer (Braun, Melsungen, 900 rpm, 10 strokes). After addition of 0.1 ml of 1 M MgCl2 solution and an incubation time of 15 minutes at 0° C., the mixture was centrifuged again at 3000× g for 15 minutes. The supernatant was then centrifuged again at 48,000× g (20,000 rpm, SS-34 rotor) for 30 minutes. The precipitate was taken up in 30 ml of 10 mM TRIS/HEPES buffer (pH 7.4)/300 mM mannitol and resuspended homogeneously by 20 strokes in a Potter Elvejhem homogenizer at 1000 rpm. After centrifugation at 48,000× g (20,000 rpm, SS-34 rotor) for 30 minutes, the precipitate was taken up in 0.5 to 2 ml of TRIS/HEPES buffer (pH 7.4)/280 mM mannitol (final concentration 20 mg/ml) and resuspended with the aid of a tuberculin syringe with a 27-gauge needle. The vesicles were either used directly for transportation studies after the preparation or stored at -196° C. in 4 mg portions in liquid nitrogen.
2. Inhibition of the Na^+ -dependent [^3 H]taurocholate uptake in brush border membrane vesicles of the ileum
The uptake of substrates in the brush border membrane vesicles described above was determined by means of the so-called membrane filtration technique. 10 μl of the vesicle suspension (100 μg of protein) were pipetted as drops onto the wall of a polystyrene incubation tube (11×70 mm), which contained the incubation medium with the corresponding ligands (90 μl). […]

Structure (SMILES)	IC5ONa -TCDC (μmol)/ IC50Na -compound (μmol)
CC(CCC(=O)O)C1CC[C@H]2[C@@H]3[C@H](O)C[C@@H]4C[C@@H](NC(=O)CCC(=O)Nc5ccccc5C(Nc5ccccn5)C(c5ccccn5)C(O)c5ccccc5)CC[C@]4(C)[C@H]3C[C@H](O)[C@]12C (some centres unmarked) [Example 8]	0.91
CC(CCC(=O)O)C1CCC2C3C(O)CC4CC(NC(=O)CCC(=O)NC(CCCCNC(=O)OC(C)(C)C)C(=O)Nc5ccccc5C(Nc5ccccn5)C(c5ccccn5)C(O)c5ccccc5)CCC4(C)C3CC(O)C12C (centres unmarked) [Example 1j]	1.51
CC(CCC(=O)NCC(=O)O)C1CCC2C3C(O)CC4CC(NC(=O)CCC(=O)NC(CCCCNC(=O)OC(C)(C)C)C(=O)Nc5ccccc5C(Nc5ccccn5)C(c5ccccn5)C(O)c5ccccc5)CCC4(C)C3CC(O)C12C (centres unmarked) [Example 14]	1.52
C[C@H](CCC(=O)O)[C@H]1CC[C@H]2[C@@H]3[C@H](O)C[C@@H]4C[C@@H](NC(=O)CCC(=O)Nc5ccc(C(Nc6ccccn6)C(c6ccccn6)C(O)c6ccccc6)cc5)CC[C@]4(C)[C@H]3C[C@H](O)[C@]12C (some centres unmarked) [Example 7]	0.15
C[C@H](CCC(=O)Nc1ccccc1[C@@H](Nc1ccccn1)[C@H](c1ccccn1)[C@H](O)c1ccccc1)[C@H]1CC[C@H]2[C@@H]3[C@H](O)C[C@@H]4C[C@H](O)CC[C@]4(C)[C@H]3C[C@H](O)[C@]12C [Example 4]	0.50
COC(=O)CCC(C)C1CCC2C3C(O)CC4CC(NC(=O)CCC(=O)NCCCCC(N)C(=O)Nc5ccccc5C(Nc5ccccn5)C(c5ccccn5)C(O)c5ccccc5)CCC4(C)C3CC(O)C12C (centres unmarked) [Example 9]	2.02
CC(CCC(=O)O)C1CCC2C3C(O)CC4CC(NC(=O)CCC(=O)NC(CCCCNC(=O)OC(C)(C)C)C(=O)Nc5ccccc5C(Nc5ccccn5)C(c5ccccn5)C(O)c5ccccc5)CCC4(C)C3CC(O)C12C (centres unmarked) [Example 12]	2.58
CC(CCC(=O)O)C1CCC2C3C(O)CC4CC(NC(=O)CCC(=O)NC(Cc5ccccc5)C(=O)N5CCCC5C(=O)Nc5ccccc5C(Nc5ccccn5)C(c5ccccn5)C(O)c5ccccc5)CCC4(C)C3CC(O)C12C (centres unmarked) [Example 2e]	1.96
CC(CCC(=O)O)C1CCC2C3C(O)CC4CC(NC(=O)CCC(=O)NCCCCC(N)C(=O)Nc5ccccc5C(Nc5ccccn5)C(c5ccccn5)C(O)c5ccccc5)CCC4(C)C3CC(O)C12C (centres unmarked) [Example 10]	1.63
COC(=O)CCC(C)C1CCC2C3C(O)CC4CC(NC(=O)CCC(=O)NC(Cc5ccccc5)C(=O)N5CCCC5C(=O)Nc5ccccc5C(Nc5ccccn5)C(c5ccccn5)C(O)c5ccccc5)CCC4(C)C3CC(O)C12C (centres unmarked) [Example 2d]	0.56
CC(CCC(=O)NCCS(=O)(=O)O)C1CCC2C3C(O)CC4CC(NC(=O)CCC(=O)NC(CCCCNC(=O)OC(C)(C)C)C(=O)Nc5ccccc5C(Nc5ccccn5)C(c5ccccn5)C(O)c5ccccc5)CCC4(C)C3CC(O)C12C (centres unmarked) [Example 1k]	1.59
